Consider six compounds from patent publication US20250034135A1, “ANTI-APOPTOTIC PROTEIN BCL-2 INHIBITOR, PHARMACEUTICAL COMPOSITION AND USES THEREOF” (HANGZHOU HEALZEN THERAPEUTICS CO., LTD., priority 2021, published 2025).

The target of series [1] is T1, human CYP3A4 enzyme (Homo sapiens (Human), UniProt P08684).
Experimental: (§1) The inhibitory activity of compounds on human CYP3A4 enzyme was detected using a VIVID™ CYP3A4 GREEN SCRNING KIT reagent kit. The Vivid™ CYP450 screening kit includes a Vivid™ substrate, Vivid™ fluorescence standard, reaction buffer, Vivid™ regeneration system, NADP+ and CYP450 BACULOSOMES™ Plus reagent. Operations were performed following the instructions, and a blank control group was set up without adding any compounds.
(§2) The IC50 value of the compounds inhibiting human CYP3A4 enzyme was calculated using Graphpad Prism 7.00 software through the formula Y=100/(1+10^((Log IC50−X)*HillSlope)).
The conditions of series [2]: beagle, dog, in vivo, 5 mg/kg.
Experimental: (§3) Experimental method: Beagle dogs were used as experimental animals and administered 5 mg/kg by gavage. The blood collection time points for gavage administration were 0, 0.5, 1, 2, 3, 4, 6, 8, and 24 hours. 3 mL of whole blood was collected, and after centrifugation, plasma was taken for LC-MS analysis.
A short description of another series: in vivo. Particulars: Sprague-Dawley, rat, po, 10 mg/kg.
The next series has as its target BCL2 (G101V) (Homo sapiens (Human), UniProt P10415, G101V). In words: Molecular level activity test of anti-apoptotic protein BCL2 (G101V) (HTRF, binding to Bim peptide). Particulars: inhibition of BCL2 (G101V) binding to Bim peptide, read-out: BCL-2 (G101V). An outline of the steps: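 His-tagged recombinant BCL2 (G101V) incubated 1 h with biotin-BIM peptide and compound (2% DMSO), then anti-His and streptavidin-XL665 detection reagents added for 4 h at room temperature. HTRF signal reflects compound effect on BCL2–BIM binding.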

Another series relates to human platelets. In words: Platelet viability test (CTG). Particulars: CTG after 24 h. The series is classed as cell-based. On the procedure: After 10 mL of platelet-rich plasma was added to 30 mL of ACD-A solution and uniformly mixed, centrifugation was performed at 1200 g, and the supernatant was discarded; 10 mL of ACD-A solution was added, resuspended, uniformly mixed, and centrifuged at 1200 g for 10 min, and the supernatant was discarded. 5 mL of HEPES-Tyrode's buffer containing 1 μM PGE1 and 0.2 U/mL apyrase was added, slightly inverted, and then centrifuged at 800 g for 5 min, and the supernatant was discarded. 10 mL of HEPES-Tyrode's buffer containing 1 μM PGE1 and 0.2 U/mL apyrase was added, resuspended, and centrifuged at 1000 g for 5 min, and the supernatant was discarded. 2 mL of HEPES-Tyrode's buffer containing 1 μM PGE1+10% FBS-resuspended platelets was added, 200 μL was taken into a centrifuge tube and diluted to 2 mL. Then it was diluted to 1, 0.8, 0.6, 0.4, 0.2, 0.1, 0.08, 0.06, 0.04, 0.02, 0.01 times, the volume was complemented to 100 μL, and 50 μL of CTG reagent was added to detect cell viability. The maximum valid dilution with a fluorescence value not exceeding […] was selected for dilution, 90 μL/well was connected to a 96-well cell plate for chemiluminescence detection. A compound was prepared with HEPES-Tyrode's buffer containing 1 μM of PGE1+10% FBS, and added to the cells, which was gently beaten evenly and detected for cell viability by adding 50 μL CTG after 24 h.

In series [3] the test system is RS4; 11 cells. As to the kind of experiment: In vivo anti-tumor efficacy, RS4; 11 subcutaneous transplanted tumor model. Particulars: 11 transplanted tumor, NOD/SCID mice, after 8 days. An excerpt: Tumor models were established by subcutaneous inoculation of RS4; 11 cells into NOD/SCID mice. When the tumors grew to about 100 mm^3, the mice were divided into groups and administered as follows: The control group was given a corresponding volume of CMC-Na solution by gavage; […]; the weight and tumor size changes of the mice were weighed twice a week, and after 8 days, the efficacy of the compounds on RS4; 11 mice transplanted tumors was investigated.
The relative tumor proliferation rate T/C %=TRTV/CRTV×100% (TRTV: average RTV of the treatment group; CRTV: average RTV of the negative control group). Based on the results of tumor measurements, the relative tumor volume (RTV) was calculated using the formula RTV=Vt/V0, where V0 was the tumor volume measured during group division (i.e. D0), Vt was the tumor volume at a certain measurement, and TRTV and CRTV used the data of the same day.

A short description of a further series: Canine absorption test. Particulars: Beagle dogs, 5 mg/kg by gavage.
Series [4] has as its target T1, human CYP3A4 enzyme. As to the kind of experiment: CYP3A4 enzyme inhibitory activity (Vivid CYP3A4 Green screening kit). Particulars: read-out: CYP3A4 (IC50); Vivid CYP3A4 Green screening kit.
Experimental: as §1, §2
In the next series the target is BCL-XL (Homo sapiens (Human), UniProt Q07817). In words: BCL-XL enzyme molecular level activity test (HTRF, binding to BIM peptide). Particulars: binding of BCL-XL to BIM peptide, read-out: BCL-XL inhibitory activity (IC50). In a few lines:
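HTRF binding assay: His-tagged recombinant BCL-XL with biotin-BIM peptide and compound (2% DMSO), 1 h. Anti-His and streptavidin-XL665 detection reagents added, 4 h at room temperature. Excitation 320 nm; 665/615 nm ratio reflects binding, with no-protein background and no-compound full-binding controls.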
A general note: TR-FRET usually uses a lanthanide donor and a delayed reading to cut background.

Another series is described as follows: Rat absorption test. Particulars: Sprague-Dawley, plasma, po, 10 mg/kg.
The target in a further series is BCL2 (Homo sapiens (Human), UniProt P10415). In words: Molecular level activity test of anti-apoptotic protein BCL2 (HTRF, binding to Bim peptide). Particulars: HTRF, binding of BCL2 to Bim peptide; read-out: BCL2 nM (inhibitory activity, IC50). An outline of the steps: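 HTRF binding of His-tagged recombinant BCL2 to biotin-tagged Bim peptide, compound in 2% DMSO. After 1 h reaction, anti-His and streptavidin-XL665 detection reagents were added and incubated 4 h at room temperature before reading.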

Series [5] relates to RS4; 11 cells. In words: Tumor proliferation inhibitory activity test (MTS) on RS4; 11. Format: cell-based. Particulars: 3 days incubation. In a few lines:
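RS4;11 cells were exposed to serially diluted compound (0.2% DMSO control) for 3 days at 37 °C/5% CO2, followed by MTS for 3–4 h. Read-out was OD490−OD690, and inhibition was calculated relative to the DMSO and blank wells.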

The next series concerns the target BCL2 (D103Y) (Homo sapiens (Human), UniProt P10415, D103Y). As to the kind of experiment: Molecular level activity test of BCL2 (D103Y) (HTRF, binding to Bim peptide). Particulars: read-out: BCL-2 (D103Y) (nM) (inhibitory activity, IC50). In a few lines:
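His-tagged recombinant protein mixed with biotinylated BIM peptide and compound (2% DMSO), reacted 1 h. Anti-His and streptavidin-XL665 detection reagents then added and incubated 4 h at room temperature before HTRF read-out of binding inhibition.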

Read-outs that look alike come from different tables or passages of the source.

T1 sequence (P08684 whole entry): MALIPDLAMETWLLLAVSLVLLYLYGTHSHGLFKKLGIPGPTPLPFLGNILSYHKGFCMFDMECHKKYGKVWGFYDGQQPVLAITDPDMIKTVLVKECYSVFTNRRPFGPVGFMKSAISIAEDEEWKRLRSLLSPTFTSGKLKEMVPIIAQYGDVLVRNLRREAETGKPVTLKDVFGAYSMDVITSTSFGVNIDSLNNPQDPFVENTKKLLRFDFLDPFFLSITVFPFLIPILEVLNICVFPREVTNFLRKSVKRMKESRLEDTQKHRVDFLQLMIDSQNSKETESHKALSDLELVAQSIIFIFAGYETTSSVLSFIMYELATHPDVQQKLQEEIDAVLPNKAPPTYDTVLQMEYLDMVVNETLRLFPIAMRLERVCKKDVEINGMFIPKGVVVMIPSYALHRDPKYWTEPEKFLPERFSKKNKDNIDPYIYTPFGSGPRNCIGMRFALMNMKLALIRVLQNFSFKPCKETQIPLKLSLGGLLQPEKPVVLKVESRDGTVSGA
Sequence of BCL-XL (Q07817 whole entry): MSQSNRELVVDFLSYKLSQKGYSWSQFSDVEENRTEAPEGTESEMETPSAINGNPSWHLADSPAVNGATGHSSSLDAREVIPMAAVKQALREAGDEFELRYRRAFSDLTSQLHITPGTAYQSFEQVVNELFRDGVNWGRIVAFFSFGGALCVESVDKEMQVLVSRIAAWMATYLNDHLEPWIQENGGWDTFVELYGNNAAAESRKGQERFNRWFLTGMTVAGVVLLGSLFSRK
Experimental for Canine absorption test: as §3
Experimental for Rat absorption test: Experimental method: SD rats were used as experimental animals and administered 10 mg/kg by gavage. The blood collection time points for gavage administration were 0, 0.5, 1, 2, 3, 4, 6, 8, and 24 hours. 3 mL of whole blood was collected, and after centrifugation, 1 mL of plasma was taken for LC-MS analysis.

One may read the AUC as concentration integrated over time. A high value points to high exposure. `COc1ccc(CN2CCN(C3CC4(CCN(c5cc(Oc6cnc7[nH]ccc7c6)c(C(=O)NS(=O)(=O)c6ccc(NCC7(F)CCOCC7)c([N+](=O)[O-])c6)cc5F)CC4)C3)[C@H](c3ccccc3C(C)C)C2)cc1` [compound 152, (R)-2-((1H-pyrrolo[2,3-b]pyrid-5-yl)oxy)-5-fluoro-N-((4-(((4-fluorotetrahydro-2H-pyran-4-yl)methyl)amino)-3-nitrophenyl)sulfonyl)-4-(2-(2-(2-isopropylphenyl)-4-(4-methoxybenzyl)piperazin-1-yl)-7-azaspiro[3.5]non-7-yl)benzamide] had an IC50 against human CYP3A4 enzyme [1] greater than 20000 nM. Further, the DNAUC in [2] was 13685 AUC (h*ng/mL)/dose (mg/kg). The compound further yielded an exposure (AUC) in the series “in vivo” of 3330 ng·h/mL.
With `COc1ccc(CN2CCN(C3CC4(CCN(c5cc(Oc6cnc7[nH]ccc7c6)c(C(=O)NS(=O)(=O)c6ccc(NC[C@H]7CC[C@](C)(O)CC7)c([N+](=O)[O-])c6)cc5F)CC4)C3)[C@H](c3ccccc3C(C)C)C2)cc1` [compound 234], the IC50 at BCL2 (G101V) was less than 10 nM; in the series on human platelets it was greater than 5000 nM; at human CYP3A4 enzyme [4], greater than 20000 nM; on BCL-XL (values in nM), greater than 500 nM; on BCL2 it was less than 10 nM; in the series on RS4; 11 cells [5] (Homo sapiens, RS4-11, 72 h), less than 0.5 nM. On BCL2 (D103Y), the IC50 is less than 10 nM. The T/C % in the series with RS4; 11 cells [3] (5 mg/kg by gavage) is 1.26%. For the same compound, the DNAUC in the series “Canine absorption test” is reported as 9103 AUC (h*ng/mL)/dose (mg/kg). Besides, the AUC in “Rat absorption test” is 5630 ng·h/mL.
Take `COc1ccc(CN2CCN(C3CC4(CCN(c5cc(Oc6cnc7[nH]ccc7c6)c(C(=O)NS(=O)(=O)c6ccc(NC[C@H]7CC[C@](C)(O)CC7)c([N+](=O)[O-])c6)cn5)CC4)C3)[C@H](c3ccccc3C(C)C)C2)cc1` [compound 256, 4-((1H-pyrrolo[2,3-b]pyrid-5-yl)oxy)-N-((4-((((1r, 4r)-4-hydroxy-4-methylcyclohexyl)methyl)amino)-3-nitrophenyl)sulfonyl)-6-(2-((R)-2-(2-isopropylphenyl)-4-(4-methoxybenzyl)piperazin-1-yl)-7-azaspiro[3.5]non-7-yl) nicotinamide]: the IC50 at BCL2 (G101V) was less than 10 nM; at human CYP3A4 enzyme [4], greater than 20000 nM; on BCL2, less than 10 nM; in the series on RS4; 11 cells [5] (Homo sapiens, RS4-11, 72 h), less than 0.5 nM; at BCL2 (D103Y), less than 10 nM. The compound also showed an area under the curve (AUC) in “Rat absorption test” of 1800 ng·h/mL.
Take `COc1ccc(CN2CCN(C3CC4(CCN(c5ccc(C(=O)NS(=O)(=O)c6cc([N+](=O)[O-])c(NCC7(F)CCOCC7)c7[nH]cnc67)c(Oc6cnc7[nH]ccc7c6)c5)CC4)C3)[C@H](c3ccccc3C(C)C)C2)cc1` [compound 261, (R)-2-((1H-pyrrolo[2,3-b]pyrid-5-yl)oxy)-N-((7-(((4-fluorotetrahydro-2H-pyran-4-yl)methyl)amino)-6-nitro-1H-benzo[d]imidazol-4-yl)sulfonyl)-4-(2-(2-(2-isopropylphenyl)-4-(4-methoxybenzyl)piperazin-1-yl)-7-azaspiro[3.5]non-7-yl)benzamide]: the IC50 is less than 10 nM at BCL2 (G101V); greater than 20000 nM on human CYP3A4 enzyme [4]; less than 10 nM on BCL2; less than 0.5 nM in the series with RS4; 11 cells [5] (Homo sapiens, RS4-11, 72 h); less than 10 nM on BCL2 (D103Y). In the series with RS4; 11 cells [3] (15 mg/kg by gavage), this compound displayed a T/C % of 5.35%. The AUC in “Rat absorption test” turned out to be 1210 ng·h/mL.
For `COc1ccc(CN2CCN(C3CC4(CCN(c5cc(Oc6cnc7[nH]ccc7c6)c(C(=O)NS(=O)(=O)c6cc([N+](=O)[O-])c(NC[C@H]7CC[C@](C)(O)CC7)c7[nH]cnc67)cn5)CC4)C3)[C@H](c3ccccc3C(C)C)C2)cc1` [compound 266, 4-((1H-pyrrolo[2,3-b]pyrid-5-yl)oxy)-N-((7-((((1r,4r)-4-hydroxy-4-methylcyclohexyl)methyl)amino)-6-nitro-1H-benzo[d]imidazol-4-yl)sulfonyl)-6-(2-((R)-2-(2-isopropylphenyl)-4-(4-methoxybenzyl)piperazin-1-yl)-7-azaspiro[3.5]non-7-yl) nicotinamide], the IC50 at BCL2 (G101V) is less than 10 nM; on human CYP3A4 enzyme [4], greater than 20000 nM; at BCL2, less than 10 nM; with RS4; 11 cells [5] (Homo sapiens, RS4-11, 72 h), less than 0.5 nM; on BCL2 (D103Y), less than 10 nM. In addition, in the series with RS4; 11 cells [3] (5 mg/kg by gavage), the T/C % is given as 15.38%.
Take “(R)-2-((1H-pyrrolo[2,3-b]pyrid-5-yl)oxy)-5-fluoro-N-((4-(((4-fluorotetrahydro-2H-pyran-4-yl)methyl)amino)-3-nitrophenyl)sulfonyl)-4-(2-(2-(2-isopropylphenyl)-4-(4-methoxybenzyl)piperazin-1-yl)-7-azaspiro[3.5]non-7-yl)benzamide [compound 152]”: the IC50 was less than 10 nM on BCL2 (G101V); greater than 5000 nM in the series on human platelets; greater than 1000 nM on BCL-XL (values given in μM); less than 10 nM on BCL2; less than 0.5 nM in the series on RS4; 11 cells [5]; less than 10 nM on BCL2 (D103Y). The compound further registered a T/C % in the series on RS4; 11 cells [3] (5 mg/kg by gavage) of 0.35%.
